PubChem BioAssay AID212 (DTP/NCI, 2004)
Several values for one entry are separate records, joined by “and”; a condition that tells them apart may be missing. Identical values can stand only once. Records with an inconclusive call do not appear.

System: BDF1 mice, colon carcinoma 38 sc, T/C %
Assay: NCI In Vivo Anticancer Drug Screen. Data for tumor model Colon Carcinoma 38 (subcutaneous) in B6D2F1 (BDF1) mice
Settings: endpoint: median tumor weight (est.), higher = larger tumour
Experimental: The antitumor activity of compounds was measured in mice bearing transplantable tumors. Survival or tumor size were measured and the results are expressed as the measurement made in the treated group (T) divided by the measurement made in the vehicle treated control group (C). The tumor model used in this assay is Colon Carcinoma 38 (subcutaneous) in B6D2F1 (BDF1) mice

[1] = dose: 100.0 mg/kg/injection, schedule: Q07DX002 (ip), vehicle: saline
[2] = dose: 200.0 mg/kg/injection, schedule: Q07DX002 (ip), vehicle: saline
[3] = dose: 400.0 mg/kg/injection, schedule: Q07DX002 (ip), vehicle: saline
[4] = dose: 12.5 mg/kg/injection, schedule: Q07DX002 (ip), vehicle: saline
[5] = dose: 12.5 mg/kg/injection, schedule: Q07DX003 (ip), vehicle: Klucel (hydroxypropylcellulose) (HPC)
[6] = dose: 100.0 mg/kg/injection, schedule: Q07DX003 (ip), vehicle: Klucel (hydroxypropylcellulose) (HPC)

With `C=C(C)[C@]12CC(C)C34OC(/C=C\C=C\CCCCCCCCC)(O[C@@H]1[C@@H]3[C@@H]1O[C@]1(CO)[C@@H](O)[C@]1(O)C(=O)C(C)=C[C@@H]41)O2` (stereo not given in full) the T/C (dose: 0.18 mg/kg/injection, schedule: Q07DX002 (ip), vehicle: distilled water + alcohol) was 109 % of control, the T/C (dose: 0.37 mg/kg/injection, schedule: Q07DX002 (ip), vehicle: distilled water + alcohol) was 76 % of control and the T/C (dose: 0.75 mg/kg/injection, schedule: Q07DX002 (ip), vehicle: distilled water + alcohol) was 105 % of control. For the same molecule, the T/C (dose: 1.5 mg/kg/injection, schedule: Q07DX002 (ip), vehicle: distilled water + alcohol) was 75 % of control.

For `c1ccc2c(NCCCCCCCCNc3c4ccccc4nc4ccccc34)c3ccccc3nc2c1`, the T/C (dose: 5.0 mg/kg/injection, schedule: Q07DX002 (ip), vehicle: Klucel (hydroxypropylcellulose) (HPC)) was 109 % of control and 101 % of control, the T/C (dose: 10.0 mg/kg/injection, schedule: Q07DX002 (ip), vehicle: Klucel (hydroxypropylcellulose) (HPC)) was 78 % of control and 93 % of control and the T/C (dose: 20.0 mg/kg/injection, schedule: Q07DX002 (ip), vehicle: Klucel (hydroxypropylcellulose) (HPC)) was 75 % of control and 77 % of control. For the same molecule, the T/C (dose: 40.0 mg/kg/injection, schedule: Q07DX002 (ip), vehicle: Klucel (hydroxypropylcellulose) (HPC)) was 72 % of control and 87 % of control and the T/C (dose: 80.0 mg/kg/injection, schedule: Q07DX002 (ip), vehicle: Klucel (hydroxypropylcellulose) (HPC)) was 79 % of control and 100 % of control.

In the case of `COC1/C=C\C=C(/C)C(=O)NC2=CC(=O)C=C(C2=O)C(OC)C(C)CC(OC)C(OC)C(C)/C=C(/C)C1OC(N)=O` (stereo not given), the T/C (dose: 1.5 mg/kg/injection, schedule: Q07DX002 (ip), vehicle: Klucel (hydroxypropylcellulose) (HPC)) is reported as 159 % of control, the T/C (dose: 6.0 mg/kg/injection, schedule: Q07DX002 (ip), vehicle: Klucel (hydroxypropylcellulose) (HPC)) is reported as 117 % of control and the T/C (dose: 12.0 mg/kg/injection, schedule: Q07DX002 (ip), vehicle: Klucel (hydroxypropylcellulose) (HPC)) is reported as 115 % of control.

`NC(=S)c1ncn(C2OC(CO)C(O)C2O)c1N` (stereo not given) was tested, and the T/C (dose: 12.5 mg/kg/injection, schedule: Q07DX002 (ip), vehicle: suspension in saline) was 114 % of control, the T/C (dose: 25.0 mg/kg/injection, schedule: Q07DX002 (ip), vehicle: suspension in saline) was 80 % of control and the T/C (dose: 50.0 mg/kg/injection, schedule: Q07DX002 (ip), vehicle: saline) was 106 % of control. The T/C (dose: 50.0 mg/kg/injection, schedule: Q07DX002 (ip), vehicle: suspension in saline) was 87 % of control, the T/C [1] was 118 % of control and the T/C (dose: 100.0 mg/kg/injection, schedule: Q07DX002 (ip), vehicle: suspension in saline) was 67 % of control. The T/C [2] was 259 % of control, the T/C (dose: 200.0 mg/kg/injection, schedule: Q07DX002 (ip), vehicle: suspension in saline) was 56 % of control and the T/C [3] was 226 % of control. The T/C (dose: 400.0 mg/kg/injection, schedule: Q07DX002 (ip), vehicle: suspension in saline) was 67 % of control.

`C/C=C/C1=CC(=O)C(O)C1O` (stereo not given) was tested, and the T/C (dose: 90.0 mg/kg/injection, schedule: Q07DX002 (ip), vehicle: water) was 75 % of control and the T/C (dose: 180.0 mg/kg/injection, schedule: Q07DX002 (ip), vehicle: water) was 170 % of control.

In the case of `Nc1cc2[nH]cnc2c(=O)[nH]1`, the T/C [4] is reported as 66 % of control, the T/C (dose: 25.0 mg/kg/injection, schedule: Q07DX002 (ip), vehicle: saline) is reported as 168 % of control and the T/C [1] is reported as 113 % of control. For the same molecule, the T/C [2] was 99 % of control and the T/C [3] was 117 % of control.

For `CNc1nc(NC)nc(NC)n1`, the T/C [5] was 105 % of control, the T/C (dose: 50.0 mg/kg/injection, schedule: Q07DX003 (ip), vehicle: Klucel (hydroxypropylcellulose) (HPC)) was 111 % of control and the T/C [6] was 109 % of control. For the same molecule, the T/C (dose: 200.0 mg/kg/injection, schedule: Q07DX003 (ip), vehicle: Klucel (hydroxypropylcellulose) (HPC)) was 86 % of control.

For `CCCC(=O)O.CCCC(=O)O.CCCC(=O)O.CCCC(=O)O.[Rh].[Rh]`, the T/C (dose: 0.25 mg/kg/injection, schedule: Q07DX002 (ip), vehicle: saline + alcohol) was 87 % of control, the T/C (dose: 0.5 mg/kg/injection, schedule: Q07DX002 (ip), vehicle: saline + alcohol) was 76 % of control and the T/C (dose: 1.0 mg/kg/injection, schedule: Q07DX002 (ip), vehicle: saline + alcohol) was 91 % of control.

In the case of `CC(C)NCC(O)COc1cccc2ccccc12` (stereo not given), the T/C (dose: 4.0 mg/kg/injection, schedule: Q07DX002 (ip), vehicle: Klucel (hydroxypropylcellulose) (HPC)) is reported as 122 % of control, the T/C (dose: 8.0 mg/kg/injection, schedule: Q07DX002 (ip), vehicle: Klucel (hydroxypropylcellulose) (HPC)) is reported as 100 % of control and the T/C (dose: 64.0 mg/kg/injection, schedule: Q07DX002 (ip), vehicle: Klucel (hydroxypropylcellulose) (HPC)) is reported as 88 % of control.

`C=CC(C)NC(=S)NNC(=S)NC` (stereo not given) was tested, and the T/C (dose: 50.0 mg/kg/injection, schedule: Q07DX002 (ip), vehicle: saline + alcohol) was 97 % of control, the T/C (dose: 100.0 mg/kg/injection, schedule: Q07DX002 (ip), vehicle: saline + alcohol) was 112 % of control and the T/C (dose: 200.0 mg/kg/injection, schedule: Q07DX002 (ip), vehicle: saline + alcohol) was 104 % of control. For the same molecule, the T/C (dose: 400.0 mg/kg/injection, schedule: Q07DX002 (ip), vehicle: saline + alcohol) was 86 % of control.

In the case of `COc1cccc2c1C(=O)c1c(O)c3c(c(O)c1C2=O)CC(O)(/C(C)=N/NC(=O)CCCCC(=O)N/N=C(\C)C1(O)Cc2c(O)c4c(c(O)c2C(OC2CC(N)C(O)C(C)O2)C1)C(=O)c1c(OC)cccc1C4=O)CC3OC1CC(N)C(O)C(C)O1` (stereo not given), the T/C (dose: 6.25 mg/kg/injection, schedule: Q07DX002 (ip), vehicle: saline) is reported as 46 % of control, the T/C (dose: 6.25 mg/kg/injection, schedule: Q07DX002 (ip), vehicle: water) is reported as 68 % of control and the T/C [4] is reported as 32 % of control. For the same molecule, the T/C (dose: 12.5 mg/kg/injection, schedule: Q07DX002 (ip), vehicle: water) was 21 % of control.

`COC1C(O)C(C)OC(OC2C(Oc3cccc4c(O)c5c(=O)oc6ccc(C)c7c(=O)oc(c34)c5c67)OC(C)C(O)C2O)C1O` (stereo not given) was tested, and the T/C (dose: 12.5 mg/kg/injection, schedule: Q07DX002 (ip), vehicle: Klucel (hydroxypropylcellulose) (HPC)) was 118 % of control and 108 % of control, the T/C (dose: 12.5 mg/kg/injection, schedule: Q07DX002 (ip), vehicle: saline with Tween-80) was 111 % of control and the T/C [5] was 72 % of control and 92 % of control. The T/C (dose: 25.0 mg/kg/injection, schedule: Q07DX002 (ip), vehicle: Klucel (hydroxypropylcellulose) (HPC)) was 57 % of control, the T/C (dose: 25.0 mg/kg/injection, schedule: Q07DX002 (ip), vehicle: saline with Tween-80) was 83 % of control and the T/C (dose: 25.0 mg/kg/injection, schedule: Q07DX003 (ip), vehicle: Klucel (hydroxypropylcellulose) (HPC)) was 103 % of control. For the same molecule, the T/C (dose: 50.0 mg/kg/injection, schedule: Q07DX002 (ip), vehicle: saline with Tween-80) was 84 % of control, the T/C (dose: 100.0 mg/kg/injection, schedule: Q07DX002 (ip), vehicle: saline with Tween-80) was 75 % of control and the T/C [6] was 88 % of control and 104 % of control. The T/C (dose: 200.0 mg/kg/injection, schedule: Q07DX002 (ip), vehicle: Klucel (hydroxypropylcellulose) (HPC)) was 157 % of control and the T/C (dose: 200.0 mg/kg/injection, schedule: Q07DX002 (ip), vehicle: saline with Tween-80) was 107 % of control.

`CCN(CC)CCCC(C)Nc1c2ccc(Cl)cc2nc2ccc(OC)cc12` (stereo not given) was tested, and the T/C (dose: 16.0 mg/kg/injection, schedule: Q07DX003 (ip), vehicle: suspension in saline) was 96 % of control and 103 % of control, the T/C (dose: 32.0 mg/kg/injection, schedule: Q07DX003 (ip), vehicle: suspension in saline) was 95 % of control and 106 % of control and the T/C (dose: 64.0 mg/kg/injection, schedule: Q07DX003 (ip), vehicle: suspension in saline) was 53 % of control. The T/C (dose: 128.0 mg/kg/injection, schedule: Q07DX003 (ip), vehicle: suspension in saline) was 79 % of control.

With `O=C1NC(O)CCN1C1OC(CO)C(O)C1O` (stereo not given) the T/C [1] was 153 % of control, the T/C (dose: 100.0 mg/kg/injection, schedule: Q07DX003 (ip), vehicle: saline) was 94 % of control and the T/C [2] was 192 % of control. The T/C (dose: 200.0 mg/kg/injection, schedule: Q07DX003 (ip), vehicle: saline) was 91 % of control, the T/C [3] was 89 % of control and the T/C (dose: 400.0 mg/kg/injection, schedule: Q07DX003 (ip), vehicle: saline) was 157 % of control. For the same molecule, the T/C (dose: 800.0 mg/kg/injection, schedule: Q07DX002 (ip), vehicle: saline) was 113 % of control.

For `N=C1CCCS1`, the T/C [2] was 101 % of control.
